≈ marks a conversion by molar mass, not a printed value. Calls of active or inactive are those of the source. The calls are words filed in the database; no cut-off is given here.
Key:
[1] = test system: Staphylococcus aureus; assay: Synergistic antibacterial activity against methicillin-resistant Staphylococcus aureus CCARM 3089 strain assessed as fractional inhibitory concentration in presence of ciprofloxacin by checkerboard assay; format: functional
[2] = test system: Cell membrane; assay: Induction of outer membrane permeabilization in Escherichia coli KCTC 1682 assessed as increase in fluorescence intensity at 2 to 8 ug/ml by NPN staining based analysis; details: dose 2-8 µg/ml
[3] = test system: Pseudomonas aeruginosa; assay: Synergistic antibacterial activity against multidrug-resistant Pseudomonas aeruginosa CCARM 2095 strain assessed as ciprofloxacin MIC by checkerboard assay; format: functional
[4] = test system: Lipopolysaccharide (LPS); assay: Displacement of BODIPY-TR-cadaverine from Escherichia coli O111:B4 lipopolysaccharide assessed as increase in fluorescence at 5 ug/ml by fluorescence based assay relative to control; details: dose 5.0 µg/ml
[5] = test system: Staphylococcus aureus; assay: Antibacterial activity against Staphylococcus aureus KCTC 1621 strain assessed as bacterial growth inhibition measured at 18 to 24 hrs in presence of 20% human serum by microdilution assay; format: functional; details: time 18-24 hrs
[6] = test system: Pseudomonas aeruginosa; assay: Synergistic antibacterial activity against multidrug-resistant Pseudomonas aeruginosa CCARM 2095 strain assessed as bacterial growth inhibition in presence of oxacillin by checkerboard assay; format: functional
[7] = test system: Pseudomonas aeruginosa; assay: Synergistic antibacterial activity against multidrug-resistant Pseudomonas aeruginosa CCARM 2095 strain assessed as fractional inhibitory concentration index in presence of chloramphenicol by checkerboard assay; format: functional
[8] = test system: Pseudomonas aeruginosa; assay: Synergistic antibacterial activity against multidrug-resistant Pseudomonas aeruginosa CCARM 2095 strain assessed as bacterial growth inhibition by checkerboard assay; format: functional
[9] = test system: Pseudomonas aeruginosa; assay: Synergistic antibacterial activity against multidrug-resistant Pseudomonas aeruginosa CCARM 2095 strain assessed as chloramphenicol fractional inhibitory concentration by checkerboard assay; format: functional
[10] = test system: Staphylococcus aureus; assay: Antibacterial activity against Staphylococcus aureus KCTC 1621 strain assessed as bacterial growth inhibition measured at 18 to 24 hrs in presence of 4.5 mM KCl by microdilution assay; format: functional; details: time 18-24 hrs
[11] = test system: Staphylococcus aureus; assay: Antibacterial activity against Staphylococcus aureus KCTC 1621 strain assessed as bacterial growth inhibition measured at 18 to 24 hrs in presence of 6 uM NH4Cl by microdilution assay; format: functional; details: time 18-24 hrs
[12] = test system: Pseudomonas aeruginosa; assay: Antibiofilm activity against multidrug-resistant Pseudomonas aeruginosa assessed as biofilm eradication; format: functional
[13] = test system: Staphylococcus aureus; assay: Antibacterial activity against Staphylococcus aureus KCTC 1621 strain assessed as bacterial growth inhibition measured at 18 to 24 hrs by microdilution assay; format: functional; details: time 18-24 hrs
[14] = test system: Staphylococcus aureus; assay: Additive antibacterial activity against multidrug-resistant Staphylococcus aureus CCARM 3089 strain assessed as oxacillin fractional inhibitory concentration by checkerboard assay; format: functional
[15] = test system: Pseudomonas aeruginosa; assay: Synergistic antibacterial activity against multidrug-resistant Pseudomonas aeruginosa CCARM 2095 strain assessed as ciprofloxacin fractional inhibitory concentration in presence of ciprofloxacin by checkerboard assay; format: functional
[16] = test system: Staphylococcus aureus; assay: Antibacterial activity against methicillin-resistant Staphylococcus aureus CCARM 3089 strain assessed as bacterial growth inhibition measured at 18 to 24 hrs by microdilution assay; format: functional; details: time 18-24 hrs
[17] = test system: Staphylococcus aureus; assay: Antibacterial activity against Staphylococcus aureus KCTC 1621 strain assessed as bacterial growth inhibition measured at 18 to 24 hrs in presence of 150 mM NaCl by microdilution assay; format: functional; details: time 18-24 hrs
[18] = test system: Escherichia coli; assay: Antibacterial activity against Escherichia coli KCTC 1682 strain assessed as bacterial growth inhibition measured at 18 to 24 hrs in presence of 20% human serum by microdilution assay; format: functional; details: time 18-24 hrs
[19] = test system: Staphylococcus aureus; assay: Additive antibacterial activity against multidrug-resistant Staphylococcus aureus CCARM 3089 strain assessed as fractional inhibitory concentration index in presence of oxacillin by checkerboard assay; format: functional
[20] = test system: Lipopolysaccharide (LPS); assay: Binding affinity to Escherichia coli O111:B4 lipopolysaccharide assessed as suppression of FTIC labeled LPS binding to mouse RAW264.7 cells at 20 ug/ml pretreated LPS with cells for 1 hr followed by compound addition measured after 1 hr by flow cytometer assay (reference value: 48.12%); format: cell-based; details: dose 20.0 µg/ml
[21] = test system: Staphylococcus aureus; assay: Antibacterial activity against Staphylococcus aureus KCTC 1621 strain assessed as bacterial growth inhibition measured at 18 to 24 hrs in presence of 4 uM FeCl3 by microdilution assay; format: functional; details: time 18-24 hrs
[22] = test system: Staphylococcus aureus; assay: Synergistic antibacterial activity against multidrug-resistant Staphylococcus aureus CCARM 3089 strain assessed as oxacillin fractional inhibitory concentration by checkerboard assay; format: functional
[23] = test system: Pseudomonas aeruginosa; assay: Synergistic antibacterial activity against multidrug-resistant Pseudomonas aeruginosa CCARM 2095 strain assessed as oxacillin fractional inhibitory concentration in presence of oxacillin by checkerboard assay; format: functional
[24] = test system: Escherichia coli; assay: Antibacterial activity against Escherichia coli KCTC 1682 strain assessed as bacterial growth inhibition measured at 18 to 24 hrs in presence of 1 mM MgCl2 by microdilution assay; format: functional; details: time 18-24 hrs
[25] = test system: Staphylococcus aureus; assay: Synergistic antibacterial activity against multidrug-resistant Staphylococcus aureus CCARM 3089 strain assessed as fractional inhibitory concentration index in presence of ciprofloxacin by checkerboard assay; format: functional
[26] = test system: Staphylococcus epidermidis; assay: Antibacterial activity against Staphylococcus epidermidis KCTC 1917 strain assessed as bacterial growth inhibition measured at 18 to 24 hrs by microdilution assay; format: functional; details: time 18-24 hrs
[27] = test system: RAW264.7; assay: Antiinflammatory activity in LPS-induced mouse RAW264.7 cells assessed as reduction in TNF alpha mRNA expression level at 20 ug/ml measured after 18 hrs by RT-PCR assay relative to control; format: functional, cell-based; details: dose 20.0 µg/ml
[28] = test system: Pseudomonas aeruginosa; assay: Synergistic antibacterial activity against multidrug-resistant Pseudomonas aeruginosa CCARM 2095 strain assessed as fractional inhibitory concentration index in presence of oxacillin by checkerboard assay; format: functional
[29] = test system: Staphylococcus aureus; assay: Synergistic antibacterial activity against multidrug-resistant Staphylococcus aureus CCARM 3089 strain assessed as ciprofloxacin fractional inhibitory concentration by checkerboard assay; format: functional
[30] = test system: Enterococcus faecium; assay: Antibacterial activity against vancomycin-resistant Enterococcus faecium ATCC 51559 strain assessed as bacterial growth inhibition measured at 18 to 24 hrs by microdilution assay; format: functional; details: time 18-24 hrs
[31] = test system: Staphylococcus aureus; assay: Antibacterial activity against methicillin-resistant Staphylococcus aureus CCARM 3090 strain assessed as bacterial growth inhibition measured at 18 to 24 hrs by microdilution assay; format: functional; details: time 18-24 hrs
[32] = test system: Staphylococcus aureus; assay: Synergistic antibacterial activity against methicillin-resistant Staphylococcus aureus CCARM 3089 strain assessed as bacterial growth inhibition in presence of ciprofloxacin by checkerboard assay; format: functional
[33] = test system: Pseudomonas aeruginosa; assay: Synergistic antibacterial activity against multidrug-resistant Pseudomonas aeruginosa CCARM 2095 strain assessed as bacterial growth inhibition in presence of chloramphenicol by checkerboard assay; format: functional
[34] = test system: Escherichia coli; assay: Antibacterial activity against Escherichia coli KCTC 1682 strain assessed as bacterial growth inhibition measured at 18 to 24 hrs in presence of 4.5 mM KCl by microdilution assay; format: functional; details: time 18-24 hrs
[35] = test system: Staphylococcus aureus; assay: Antibacterial activity against methicillin-resistant Staphylococcus aureus CCARM 3089 strain assessed as bacterial growth inhibition by checkerboard assay; format: functional
[36] = test system: Staphylococcus aureus; assay: Additive antibacterial activity against multidrug-resistant Staphylococcus aureus CCARM 3089 strain assessed as ciprofloxacin fractional inhibitory concentration by checkerboard assay; format: functional
[37] = test system: Pseudomonas aeruginosa; assay: Synergistic antibacterial activity against multidrug-resistant Pseudomonas aeruginosa CCARM 2095 strain assessed as chloramphenicol MIC by checkerboard assay; format: functional
[38] = test system: Staphylococcus aureus; assay: Additive antibacterial activity against methicillin-resistant Staphylococcus aureus CCARM 3089 strain assessed as chloramphenicol MIC by checkerboard assay; format: functional

SMILES	Activity [2]	MIC [3] [µg/mL]	MIC [5] [µM]	MIC [10] [µM]	MIC [11] [µM]	MBEC50 [12] [µM]	MBEC90 [12] [µM]	MIC [13] [µM]	FIC [14]	FIC [15]	MIC [16] [µM]	MIC [17] [µM]	MIC [18] [µM]	fractional inhibitory concentration index (FICI) [19]	Flu intensity [20] [%]	MIC [21] [µM]	FIC [22]	MIC [24] [µM]	MIC [26] [µM]	Activity [27]	also measured
NCCCN(CCCN)c1nc(NCc2ccccc2)nc(N2CC(Cc3ccccc3)N(c3nc(NCc4ccccc4)nc(N(CCCN)CCCN)n3)CC2Cc2ccccc2)n1 (stereo not drawn)	inactive	64	10	2.5	5	10	39.8	2.5 (≈ 2.23 µg/mL)	0.125	0.25	5 (≈ 4.47 µg/mL)	2.5	10	0.375	27.4	5	0.25	5	5 (≈ 4.47 µg/mL)	Active	FIC [1]: 0.25; Activity [4]: > 50%; MIC [6]: 4 µg/mL; fractional inhibitory concentration index (FICI) [7]: 0.375; MIC [8]: 16 µg/mL; FIC [9]: 0.125; FIC [23]: 0.25; fractional inhibitory concentration index (FICI) [25]: 0.375; fractional inhibitory concentration index (FICI) [28]: 0.5; FIC [29]: 0.125; MIC [30]: 10 µM (≈ 8.93 µg/mL); MIC [31]: 2.8 µM (≈ 2.5 µg/mL); MIC [32]: 1 µg/mL; MIC [33]: 4 µg/mL; MIC [34]: 5 µM; MIC [35]: 4 µg/mL; FIC [36]: 0.125; MIC [37]: 128 µg/mL
NCCNc1nc(NCCN)nc(N2CC(Cc3ccccc3)N(c3nc(NCCN)nc(NCCN)n3)CC2Cc2ccccc2)n1 (stereo not drawn)	inactive	256	12.2	6.1	6.1	24.3	97.3	6.1 (≈ 4.01 µg/mL)	0.25	0.25	48.6 (≈ 31.9 µg/mL)	6.1	12.2	0.5	33.4	6.1	0.25	6.1	6.1 (≈ 4.01 µg/mL)	Active	MIC [30]: 24.3 µM (≈ 16 µg/mL); MIC [31]: 3 µM (≈ 1.97 µg/mL); MIC [34]: 6.1 µM; MIC [35]: 32 µg/mL; MIC [38]: 128 µg/mL
